“Also recorded” adds a separate entry of the source.
Assays:
[1] = tested on: mitochondrial respiratory complex I; settings: literature statement; cited from earlier work
respiratory complex II = test: Polarographic assay of uncoupled (2,4-dinitrophenol) maximal respiration with succinate: inhibition of electron transport at site II; format: biochemical; settings: 500 μM drug, isolated rat liver mitochondria, qualitative
ATP synthetase = test: Polarographic assay of ADP-stimulated coupled versus uncoupled respiration: inhibition of ATP synthetase; format: biochemical; settings: 500 μM drug; isolated rat liver mitochondria; qualitative
Procedure: (§1) When coupling is intact, basal respiration will be stimulated by the addition of ADP to invoke ATP synthesis, as electron transport is stepped up to replace the H^+ gradient that is used by the ATP synthetase enzyme. If the drug inhibits this coupled respiration rate, the inhibition could be due either to inhibition of the ATP synthetase itself or to inhibition of the electron transport rate that supports the ATP synthesis. To detect which is inhibited, the drug is also tested for inhibition of maximal electron transport rates in the presence of a known uncoupler. Inhibition of the coupled, but not the uncoupled respiration rate pinpoints the inhibition to the ATP synthetase or to one of the supporting transport processes such as the phosphate or ADP/ATP transporters.
as §1, with “The third test examines whether the drug inhibits ATP synthetase. When” for “When”, “the difference,” for “which is inhibited,”, “uncoupler, as in the first test described supra.” for “uncoupler.”, “coupled” for “coupled,”, “as” for “as the”
When coupling is intact, basal respiration is stimulated by the addition of ADP which stimulates ATP synthesis, as electron transport is stepped up to re-establish the H^+ gradient that is used by the ATP synthetase enzyme. If the drug inhibits this coupled respiration rate, the inhibition could be due either to inhibition of the ATP synthetase itself or to inhibition of the electron transport rate that supports the ATP synthesis. Haloperidol, quetiapine, risperidone, and clozapine were tested for inhibition of maximal electron transport rates in the presence and absence of a known uncoupler (FIG. 4). Inhibition of the coupled, but not the uncoupled respiration rate pinpoints the inhibition to the ATP synthetase or to one of the supporting transport processes such as phosphate or ADP/ATP transporters.

[2] = tested on: isolated rat liver mitochondria; test: Polarographic assay of basal respiration: uncoupling action; format: biochemical; settings: for Uncoupling: 500 μM drug, isolated rat liver mitochondria, qualitative; for Uncoupling action (in words): drug added to rat liver mitochondria respiring in the basal state
From the text: Normally electron transport proceeds at a slow basal rate in the presence of an oxidizable substrate unless the H^+ gradient is dissipated by a need for ATP synthesis. However, if the H^+ gradient is dissipated by the addition of a chemical that alters membrane permeability to H^+, respiration will be stimulated unproductively, that is, without concomitant ATP synthesis, so that energy is wasted. […] If respiration (oxygen consumption) is stimulated, uncoupling is inferred.
The second test determines whether the drug uncouples electron transport from ATP synthesis. Normally, in these preparations, electron transport will proceed at a slow basal rate in the presence of an oxidizable substrate, unless the H^+ gradient is dissipated by a need for ATP synthesis. However, if the H^+ gradient is dissipated by the addition of a drug that alters membrane permeability to H^+, respiration will be stimulated unproductively (i.e., without concomitant ATP synthesis) so that energy is wasted. […] If respiration (e.g., oxygen consumption) is stimulated, uncoupling is inferred.
Normally electron transport proceeds at a slow basal rate in the presence of an oxidizable substrate unless the H^+ gradient is dissipated by a need for ATP synthesis. However, if the H^+ gradient is dissipated by the addition of a drug that alters membrane permeability to H^+ , respiration will be stimulated unproductively without concomitant ATP synthesis so that energy is wasted. Haloperidol, quetiapine, risperidone, and clozapine were added to mitochondria respiring in the basal state (FIG. 3). If respiration (i e., oxygen consumption) is stimulated, uncoupling is inferred.

electron transport chain = test: Polarographic assay of maximal electron transport rate (oxygen consumption), overall inhibition; format: biochemical; settings: rat liver mitochondria, maximal rate of oxygen consumption with 2,4-dinitrophenol
Procedure: A known uncoupler (2,4-dinitrophenol) was added in the presence of an oxidizable substrate to elicit maximal electron transport rates, measured as the maximal rate of oxygen consumption; a slower rate in the presence of the drug indicates inhibition somewhere in the electron transport chain.
A known uncoupler of oxidative phosphorylation (e.g., 2,4-dinitrophenol) is added to the preparation to elicit maximal electron transport rates, measured as the rate of oxygen consumption. A slower rate in the presence of the drug indicates inhibition somewhere along the electron transport chain. The test is performed with different substrates that donate electrons at either respiratory complex I (glutamate and malate) or at complex II (succinate) or via electron-transferring flavoprotein (ETF) to gain information about site-specific inhibition.
(§2) Mitochondrial respiration is measured polarographically using a Clark oxygen electrode. To test for drug effect, an appropriate concentration of drug is introduced at the beginning of the assay, prior to the addition of substrate. The test substance (e.g., drug) is thus present continuously in the assays as the basal, coupled and uncoupled rates are successively determined. The solvent in which the drug is dissolved is tested alone as the control.
(§3) Rates were measured as the rate of oxygen consumption. A slower rate in the presence of the drug indicates inhibition somewhere in the electron transport chain. The tests were performed with different substrates that donate electrons at either respiratory complex I (glutamate+malate) or at complex II (succinate) to gain information about site-specific inhibition.

respiratory complex I = settings: glutamate+malate; for El. Transport Site I: 500 μM drug, isolated rat liver mitochondria, qualitative; for Inhibition of electron transport at respiratory complex I (in words): rat liver mitochondria, 2,4-dinitrophenol added, preliminary data
Procedure: A known uncoupler (2,4-dinitrophenol) was added in the presence of an oxidizable substrate to elicit maximal electron transport rates, measured as the maximal rate of oxygen consumption; a slower rate in the presence of the drug indicates inhibition somewhere in the electron transport chain. The assay is performed with different substrates that donate electrons at either respiratory complex I (glutamate+malate) or at complex II (succinate) or through electron-transferring flavoprotein (ETF) (not shown) to gain information about site-specific inhibition.
This first test answers the questions of whether the compound under study inhibits electron transport, and if so, whether inhibition involves specific respiratory enzyme complexes in the electron transport chain. A known uncoupler of oxidative phosphorylation (e.g., 2,4-dinitrophenol) is added to the preparation to elicit maximal electron transport rates, measured as the rate of oxygen consumption. A slower rate in the presence of the drug indicates inhibition somewhere along the electron transport chain. The test is performed with different substrates that donate electrons at either respiratory complex I (glutamate and malate) or at complex II (succinate) or via electron-transferring flavoprotein (ETF) to gain information about site-specific inhibition.
as §2
Stimulation of basal respiration by the drug indicates uncoupling. If inhibition of the coupled rate is observed, this could be due to inhibition of ATP synthetase function, or to inhibition of electron transport. If the addition of uncoupler fails to relieve the inhibition, then the drug is inhibiting electron transport; and if the addition of uncoupler relieves the inhibition, then the drug is inhibiting ATP synthetase function.
Information about site specific electron transport inhibition can be obtained with this assay by using substrates that donate electrons to the respiratory chain at different branch sites. For example, by separately including either succinate which donates to complex II or glutamate+malate which donates electrons to complex I, or other organic acids which donate through electron-transferring flavoprotein (ETF).
as §3

SMILES | Inhibition of mitochondrial complex I (in words) [1] | El. Transport Site II (respiratory complex II) | ATP Synthesis (ATP synthetase) | Uncoupling [2] | Uncoupling action (in words) [2] | Inhibition of electron transport, overall (in words) (electron transport chain) | Inhibition of electron transport, overall (in words) (electron transport chain; listed as thioridazine) | El. Transport Site I (respiratory complex I) | Stimulation of basal respiration ([2]; known uncoupler, rat liver mitochondria in basal state with oxidizable substrate) | Inhibition of electron transport at respiratory complex I (in words) (respiratory complex I)
C[n+]1ccc(-c2ccccc2)cc1 [MPP^+, 1-methyl-4-phenylpyridinium] | potent and specific inhibitor of mitochondrial respiratory complex I |  |  |  |  |  |  |  |  | 
CSc1ccc2c(c1)N(CCC1CCCCN1C)c1ccccc1S2 (stereo not drawn) [Thioridazine] |  | + | − | ++ | more potent than clozapine | inhibited electron transport markedly but not specifically at either complex I or II | potent inhibitors of electron transport | +++ |  | 
O=[N+]([O-])c1ccc(O)c([N+](=O)[O-])c1 [2,4-dinitrophenol] |  |  |  |  |  |  |  |  | 6-10 fold | 
CN(C)CCCN1c2ccccc2Sc2ccc(Cl)cc21 [Chlorpromazine] |  | + | − | ++ | more potent than clozapine | potent inhibitors of electron transport |  | +++ |  | inhibited electron transport specifically at respiratory complex I
Cc1nc2n(c(=O)c1CCN1CCC(c3noc4cc(F)ccc34)CC1)CCCC2 [Risperidone] |  | + | − | ++ | more potent than clozapine | inhibited electron transport markedly but not specifically at either complex I or II; also recorded: potent inhibitors of electron transport |  | +++ |  | 
O=C(CCC[n+]1ccc(-c2ccc(Cl)cc2)cc1)c1ccc(F)cc1 [HPP^+] | potent inhibitor of mitochondrial complex I |  |  |  |  |  |  |  |  | 
O=C(CCCN1CCC(O)(c2ccc(Cl)cc2)CC1)c1ccc(F)cc1 [Haloperidol] |  | − | − | − |  | potent inhibitors of electron transport |  | ++ |  | inhibited electron transport specifically at respiratory complex I
OCCOCCN1CCN(C2=Nc3ccccc3Sc3ccccc32)CC1 [Quetiapine] |  | − | − | + | more potent than clozapine | very mild effects |  | + |  | had a slight effect and was also specific for complex I
